The values below come from patent publication US9353089B2, “Compositions and methods for the treatment of malaria” (Saint Louis University, priority 2013, dated 2016).

One assay has as its target recombinant human BACE1 (Homo sapiens, UniProt P56817). Description: β-Secretase (BACE1) enzyme inhibition FRET assay. It counts as biochemical. Conditions: Table 13; read-out: BACE1 IC50. The protocol:
The enzymatic inhibition activity assays were determined using the fluorescence resonance energy transfer (FRET) assay. The assays were performed in a 384-well plate format. […] CatD and CatE were activated by incubation in assay buffer (0.1 M NaOAc, 0.2 M NaCl, pH 3.5) at room temperature for 30 min. Subsequently, the rhBACE-1 substrate (R&D Systems, catalog# ES004), the Cathepsin D and Cathepsin E substrate (R&D Systems, Catalog # ES001) were added accordingly to final concentration 20 μM to initiate the reaction. After 60 min incubation at room temperature, the time-resolved fluorescence at Ex/Em=360 nm/460 nm was measured on an EnVision multilabel plate reader (Perkin-Elmer). The analytical software, GraphPad Prism 5.0 (GraphPad Software, Inc., USA) was used to generate IC50 values via non-linear regression analysis, which are reported in Tables 8-13 below as BACE1 IC50 values.

Assay [1] deals with Plasmodium falciparum 3D7 (CQ-sensitive). In words: In vitro antimalarial assay (malaria SYBR Green I-based fluorescence, MSF), 3D7. Format: cell-based. Conditions: for inhibition of growth at 1 µM: 3D7, 72 h, read-out: 3D7 % inh @ 1 μM. The essentials: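 Asynchronous P. falciparum 3D7 cultures (0.5% parasitemia, 2% hematocrit) were exposed to serially diluted compounds, in quadruplicate. Growth was then quantified by SYBR Green I fluorescence after adding lysis buffer containing 0.2 μL/mL dye.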

Assay [2] deals with Plasmepsin-2 (PM-2; Plm II) (Plasmodium falciparum (isolate HB3), UniProt P46925). In words: Plasmepsin-2 enzyme inhibition assay. It counts as biochemical. The conditions noted are these: read-out: PM-2 IC50. The protocol: Plasmepsin-2 (PM-2; Plm II) and Plasmepsin (PM-4; Plm IV) expression and purification was performed following the published protocols (Istvan E S and Goldberg D E, 2005). The final purified protein was activated by diluting the protein to 0.3 mg/mL in activating buffer (0.1 M citrate pH 4.5, 0.1% Tween-20, 50 mM dithiothreitol) and incubated at room temperature for 40 min, then the activated enzyme was diluted in assay buffer (50 mM sodium acetate pH 4.7, 0.01% Tween-20). The enzymatic inhibition reaction was performed in 384 well plates with a total volume of 20 μl. 10 μl of diluted PM-2 or PM-4 enzyme was added to the 384-well plate except blank wells (blank wells add 10 μL of assay buffer) and 20 nL of serials of diluted 1000× compounds were added to the wells with 520 Echo® Liquid Handling System (Labcyte Inc.). 10 μL PM-2 peptide substrate (AnaSpec, Cat#, 62050) with assay buffer was then added to final concentration of 20 μM to start the reaction. After incubation the reaction at room temperature for 60 min, the fluorescence intensity at Ex/Em=360 nm/535 nm was measured using EnVision multilabel plate reader (Perkin-Elmer). The IC50 values were obtained using Graph Pad Prism 4 and are reported in Tables 8 and 9 below as PM-2 IC50 values.
Plasmepsin-2 (PM-2; Plm II), sequence (P46925 125-453 limits assumed): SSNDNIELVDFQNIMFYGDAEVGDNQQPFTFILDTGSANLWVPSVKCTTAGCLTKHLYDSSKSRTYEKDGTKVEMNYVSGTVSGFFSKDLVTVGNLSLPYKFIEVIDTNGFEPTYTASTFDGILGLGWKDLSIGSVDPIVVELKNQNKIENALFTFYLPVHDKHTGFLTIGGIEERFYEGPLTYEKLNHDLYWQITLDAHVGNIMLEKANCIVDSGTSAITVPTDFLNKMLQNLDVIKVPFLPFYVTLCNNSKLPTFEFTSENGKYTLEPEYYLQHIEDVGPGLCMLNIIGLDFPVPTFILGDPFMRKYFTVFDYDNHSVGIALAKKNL

[3] abbreviates: 3D7, read-out: 3D7 IC50 (μM), Table 13.
[4] abbreviates: 3D7, read-out: Pf3D7 IC50 (μM), Table 10.
The mark [5] stands for this setting: 3D7, Table 11, read-out: Pf 3D7 IC50.
Setting [6] is: 3D7, Table 13, read-out: 3D7 IC50.
[7] abbreviates: 3D7, Table 12, read-out: 3D7 IC50.

pIC50: −log10 of the molar value. Read-outs that look alike come from different tables or passages of the source.

recombinant human BACE1, sequence (P56817 46-501 limits assumed): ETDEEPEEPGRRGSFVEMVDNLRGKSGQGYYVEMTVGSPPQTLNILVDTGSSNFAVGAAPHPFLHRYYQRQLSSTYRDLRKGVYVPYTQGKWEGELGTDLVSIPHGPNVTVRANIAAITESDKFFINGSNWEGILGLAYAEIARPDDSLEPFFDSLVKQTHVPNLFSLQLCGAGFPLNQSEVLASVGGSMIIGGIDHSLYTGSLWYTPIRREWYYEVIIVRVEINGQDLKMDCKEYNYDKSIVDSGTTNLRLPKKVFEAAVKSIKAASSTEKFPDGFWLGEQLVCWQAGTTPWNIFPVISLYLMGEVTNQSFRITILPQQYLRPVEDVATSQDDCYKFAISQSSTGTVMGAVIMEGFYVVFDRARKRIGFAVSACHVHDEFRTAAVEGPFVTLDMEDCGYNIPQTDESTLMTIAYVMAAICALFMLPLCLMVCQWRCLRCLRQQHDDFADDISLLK

The pIC50 is −log10 of the IC50, conventionally taken in molar units. Broadly, the IC50 is the concentration that gives 50% inhibition. Turning to `N=C1NC(c2ccccc2)(c2ccccc2)C(=O)N1C1CCCCC1` [Example 100, 3-cyclohexyl-2-imino-5,5-diphenyl-imidazolidin-4-one], the pIC50 was < 5.00 on recombinant human BACE1 and 7.54 in assay [2] (Table 13). Besides, the concentration for half-maximal inhibition (IC50) in assay [1] (setting [3]) and in assay [1] (setting [4]) was 3.85 µM each time.
Turning to `COc1ccc(C2(c3ccc(OC)cc3)NC(=N)N(C3CC3)C2=O)cc1` [Example 158, 3-cyclopropyl-2-imino-5,5-bis(4-methoxyphenyl)-imidazolidin-4-one], the pIC50 is < 5.00 at recombinant human BACE1 and 6.41 in assay [2] (Table 13). Moreover, the IC50 in assay [1] (setting [3]) and in assay [1] (setting [4]) was 4.11 µM each time.
With `COc1ccc(C2(c3cccc(-c4ccccn4)c3)NC(=N)N(C3CCCCC3)C2=O)cc1` (centres unmarked) [Example 210, 3-cyclohexyl-2-imino-5-(4-methoxyphenyl)-5-[3-(pyridin-2-yl)-phenyl]imidazolidin-4-one], the negative-log IC50 (pIC50) in assay [1] (setting [5]) was 5.74; in assay [1] (setting [6]), 5.74; in assay [2] (Table 13) it was 8.26.
Turning to `N=C1NC(c2ccccc2)(c2cccc(-c3ccncc3)c2)C(=O)N1C1CCCCC1` (centres unmarked) [Example 211, 3-cyclohexyl-2-imino-5-phenyl-5-[3-(pyridin-4-yl)phenyl]-imidazolidin-4-one], the pIC50 in assay [1] (setting [6]) is 5.99; in assay [2] (Table 13) it was 7.85.
As for `N=C1NC(c2ccccc2)(c2cccc(-c3ccccc3)c2)C(=O)N1C1CCCCC1` (centres unmarked) [Example 212, 3-cyclohexyl-2-imino-5-phenyl-5-(3-phenylphenyl)-imidazolidin-4-one], the figures for the pIC50 in assay [1] (setting [6]) and in assay [2] (Table 13) were 5.77 and 7.91, respectively.
Regarding `COc1cccc(C2(c3cccc(-c4cccnc4)c3)NC(=N)N(C3CCCCC3)C2=O)c1` (centres unmarked) [Example 214, 3-cyclohexyl-2-imino-5-(3-methoxyphenyl)-5-[3-(pyridin-3-yl)phenyl]-imidazolidin-4-one], the pIC50 is 6.10 in assay [1] (setting [5]), 6.10 in assay [1] (setting [6]) and 7.92 in assay [2] (Table 13).
Turning to `COc1ccc(C2(c3ccc(OC)cc3)NC(=N)N(Cc3cccnc3)C2=O)cc1` [Example 219, 2-imino-5,5-bis(4-methoxyphenyl)-3-(pyridin-3-ylmethyl)-imidazolidin-4-one], the negative-log IC50 (pIC50) in assay [1] (setting [6]) is 6.24; in assay [2] (Table 13), 8.02.
`COc1ccc(C2(c3ccc(OC)cc3)NC(=N)N(C3CCCCCC3)C2=O)cc1` [Example 220, 3-cycloheptyl-2-imino-5,5-bis(4-methoxyphenyl)-imidazolidin-4-one]: the pIC50 in assay [1] (3D7, Table 10, read-out: Pf3D7 IC50) is 6.37; in assay [1] (setting [6]) it was 6.37; in assay [2] (Table 13) it was 8.63.
Consider `N=C1NC(c2ccccc2)(c2cccc(OCc3ccccc3)c2)C(=O)N1C1CCCCC1` (centres unmarked) [Example 228, 5-[3-(benzyloxy)-phenyl]-3-cyclohexyl-2-imino-5-phenylimidazolidin-4-one], for which the values for the pIC50 in assay [1] (setting [5]), in assay [1] (setting [6]) and in assay [2] (Table 13) were 6.19, 6.19 and 8.54, respectively.
Take `COc1ccc(C2(c3ccc(OC)cc3)NC(=N)N(Cc3ccccc3OC)C2=O)cc1` [Example 248, 2-imino-5,5-bis(4-methoxyphenyl)-3-[(2-methoxyphenyl)-methyl]imidazolidin-4-one]: the figures for the pIC50 in assay [1] (setting [6]) and in assay [2] (Table 13) were 6.53 and 7.55, respectively.
For the compound `COc1ccc(C2(c3ccc(OC)cc3)NC(=N)N(CC(C)(C)C)C2=O)cc1` [Example 252, 3-(2,2-dimethylpropyl)-2-imino-5,5-bis(4-methoxyphenyl)-imidazolidin-4-one], the pIC50 in assay [1] (setting [6]) is 6.58; in assay [2] (Table 13), 8.28.
Turning to `COc1ccc(C2(c3ccc(OC)cc3)NC(=N)N(CC3CCCO3)C2=O)cc1` (centres unmarked) [Example 274, 2-imino-5,5-bis(4-methoxyphenyl)-3-(oxolan-2-ylmethyl)-imidazolidin-4-one], the negative-log IC50 (pIC50) is 6.20 in assay [1] (setting [6]) and 7.94 in assay [2] (Table 13).
Turning to `COc1ccc(C2(c3ccc(OC)cc3)NC(=N)N(CC34CC5CC(CC(C5)C3)C4)C2=O)cc1` [Example 276, 3-(adamantan-1-ylmethyl)-2-imino-5,5-bis(4-methoxyphenyl)-imidazolidin-4-one], the pIC50 at recombinant human BACE1 was 5.11; in assay [2] (Table 13) it was 8.70. Further, in assay [1] (setting [3]), the IC50 worked out at 0.336 µM.
Regarding `COc1ccc(C2(c3ccc(OC)cc3)NC(=N)N(Cc3cccc(C)c3C)C2=O)cc1` [Example 277, 3-[(2,3-dimethyl-phenyl)methyl]-2-imino-5,5-bis(4-methoxyphenyl)-imidazolidin-4-one], the figures for the pIC50 in assay [1] (setting [6]) and in assay [2] (Table 13) were 5.80 and 8.36, respectively.
Regarding `COc1ccc(C2(c3ccc(OC)cc3)NC(=N)N(Cc3c(C)cccc3C)C2=O)cc1` [Example 278, 3-[(2,6-dimethyl-phenyl)methyl]-2-imino-5,5-bis(4-methoxyphenyl)-imidazolidin-4-one], the pIC50 in assay [1] (setting [6]) was 5.98; in assay [2] (Table 13), 8.56.
Take `COc1ccc(C2(c3ccc(OC)cc3)NC(=N)N(Cc3ncccc3C)C2=O)cc1` [Example 302, 2-imino-5,5-bis(4-methoxyphenyl)-3-[(3-methylpyridin-2-yl)methyl]imidazolidin-4-one]: the negative logarithm of the IC50 (pIC50) on recombinant human BACE1 was < 5.00; in assay [2] (Table 13), 7.31. Further, in assay [1] (setting [3]), the 50% inhibitory concentration (IC50) was 1.07 µM.
Turning to `COc1ccc(C2(c3ccc(OC)cc3)NC(=N)N(Cc3ccccc3C)C2=O)cc1` [Example 303, 2-imino-5,5-bis(4-methoxyphenyl)-3-[(2-methylphenyl)-methyl]imidazolidin-4-one], the values for the pIC50 in assay [1] (setting [6]) and in assay [2] (Table 13) were 6.00 and 8.51, respectively.
In the case of `COc1ccc(C2(c3ccc(OC)cc3)NC(=N)N(Cc3ccccc3C(F)(F)F)C2=O)cc1` [Example 304, 2-imino-5,5-bis(4-methoxyphenyl)-3-{[2-(trifluoromethyl)-phenyl]methyl}-imidazolidin-4-one], the values for the negative-log IC50 (pIC50) in assay [1] (setting [6]) and in assay [2] (Table 13) were 5.87 and 8.73, respectively.
Regarding `COc1ccc(C2(c3ccc(OC)cc3)NC(=N)N(Cc3ccccc3C#N)C2=O)cc1` [Example 305, 2-{[2-imino-4,4-bis(4-methoxyphenyl)-5-oxoimidazolidin-1-yl]methyl}benzonitrile], the values for the pIC50 (on recombinant human BACE1; in assay [2] (Table 13)) were 5.17 and 8.03, respectively. Besides, the inhibition of growth at 1 µM in assay [1] was found to be 81%.
In the case of `COc1ccc(C2(c3ccc(OC)cc3)NC(=N)N(CC3CCN(C)CC3)C2=O)cc1` [Example 308, 2-imino-5,5-bis(4-methoxyphenyl)-3-[(1-methylpiperidin-4-yl)methyl]imidazolidin-4-one], the negative-log IC50 (pIC50) at recombinant human BACE1 is < 5.00; in assay [2] (Table 13) it was 7.12. For the same compound, the IC50 in assay [1] (setting [3]) is 0.677 µM.
With `COc1ccc(C2(c3ccc(OC)cc3)NC(=N)N(C3CCN(C(C)=O)CC3)C2=O)cc1` [Example 310, 3-(1-acetylpiperidin-4-yl)-2-imino-5,5-bis(4-methoxyphenyl)imidazolidin-4-one], the pIC50 was ~5.59 at recombinant human BACE1 and 8.23 in assay [2] (Table 13). Further, the inhibition of growth at 1 µM in assay [1] worked out at 72%.
`COc1ccc(C2(c3ccc(OC)cc3)NC(=N)N(C3CCN(C(=O)c4ccccc4)CC3)C2=O)cc1` [Example 311, 3-(1-benzoylpiperidin-4-yl)-2-imino-5,5-bis(4-methoxyphenyl)imidazolidin-4-one]: the negative logarithm of the IC50 (pIC50) is ~5.17 at recombinant human BACE1 and 8.70 in assay [2] (Table 13). Moreover, in assay [1], the inhibition of growth at 1 µM was 81%.
Taken in the same sequence, the figures for `COc1ccc(C2(c3ccc(OC)cc3)NC(=N)N(CC3CCN(C(=O)OC(C)(C)C)CC3)C2=O)cc1` [Example 313, tert-butyl 4-{[2-imino-4,4-bis(4-methoxyphenyl)-5-oxoimidazolidin-1-yl]methyl}piperidine-1-carboxylate] were ~5.66, 7.96 and 27%.
`COc1cccc(-c2cccc(C3(c4ccccc4)NC(=N)N(C)C3=O)c2)c1` (centres unmarked) [Example 327, 2-imino-5-[3-(3-methoxyphenyl)phenyl]-3-methyl-5-phenyl-imidazolidin-4-one]: the pIC50 was 5.30 in assay [1] (setting [7]) and 6.62 in assay [2] (Table 12).
In the case of `COc1cccc(-c2cccc(C3(C4CC4)NC(=N)N(C)C3=O)c2)c1` (centres unmarked) [Example 330, 5-cyclopropyl-2-imino-5-[3-(3-methoxyphenyl)-phenyl]-3-methyl-imidazolidin-4-one], the results for the pIC50 in assay [1] (setting [7]) and in assay [2] (Table 12) were ~5.62 and 6.12, respectively.
